Reference: patent EP4467141A1, “PYRAZOLO-QUINOLINES AS SELECTIVE INHIBITORS OF GENOTOXIC STRESS-INDUCED IKK/NF- KB PATHWAYS FOR CANCER THERAPY” (Max-Delbrück-Centrum für Molekulare Medizin in der …, priority 2023, dated 2024)

Assays:
Assay in all cases: Kinase panel study
Type in all cases: biochemical
Conditions in all cases: read-out: Percentage of inhibition; for inhibition at 1 µM: 1000nM; for inhibition at 10 µM: 10000nM
CSNK1G2 (CK1 gamma 2) = target: T1, CSNK1G2 (CK1 gamma 2) (Homo sapiens, UniProt P78368)
T1 construct: purchased Thermo Fisher Scientific
Summary of the method: (§1)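 Kinase inhibition was determined by a contract provider in cell-free ZLyte or Adapta assays. Results are expressed as % inhibition at 10 or 1 µM.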

CSNK1G3 (CK1 gamma 3) = target: T2, CSNK1G3 (CK1 gamma 3) (Homo sapiens, UniProt Q9Y6M4)
T2 construct: purchased Thermo Fisher Scientific
Summary of the method: as §1

IKBKE (IKK epsilon) = target: T3, IKBKE (IKK epsilon) (Homo sapiens, UniProt Q14164)
T3 construct: purchased Thermo Fisher Scientific
T3 sequence (Q14164 1-716): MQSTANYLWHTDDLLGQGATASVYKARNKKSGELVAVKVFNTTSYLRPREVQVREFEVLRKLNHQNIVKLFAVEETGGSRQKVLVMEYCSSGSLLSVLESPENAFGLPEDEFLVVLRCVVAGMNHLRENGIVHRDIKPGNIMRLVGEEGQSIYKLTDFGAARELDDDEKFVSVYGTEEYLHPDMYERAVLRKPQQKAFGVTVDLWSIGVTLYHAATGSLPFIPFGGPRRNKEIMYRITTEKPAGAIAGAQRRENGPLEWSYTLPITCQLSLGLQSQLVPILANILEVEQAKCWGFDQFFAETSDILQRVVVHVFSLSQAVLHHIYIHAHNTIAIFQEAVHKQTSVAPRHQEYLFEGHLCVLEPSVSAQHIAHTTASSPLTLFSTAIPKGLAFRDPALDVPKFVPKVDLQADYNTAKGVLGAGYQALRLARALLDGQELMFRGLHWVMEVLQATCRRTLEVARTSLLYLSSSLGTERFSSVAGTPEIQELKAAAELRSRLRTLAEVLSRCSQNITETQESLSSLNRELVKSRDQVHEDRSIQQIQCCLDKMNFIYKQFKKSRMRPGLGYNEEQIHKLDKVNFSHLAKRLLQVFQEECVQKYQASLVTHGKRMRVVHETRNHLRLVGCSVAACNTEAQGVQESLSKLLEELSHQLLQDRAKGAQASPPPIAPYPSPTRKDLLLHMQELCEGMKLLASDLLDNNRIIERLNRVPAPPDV
Summary of the method: as §1

PRKCD (PKC delta) = target: T4, PRKCD (PKC delta) (Homo sapiens, UniProt Q05655)
T4 construct: purchased Thermo Fisher Scientific
Summary of the method: as §1

CSNK2A2 (CK2 alpha 2) = target: T5, CSNK2A2 (CK2 alpha 2) (Homo sapiens, UniProt P19784)
T5 construct: purchased Thermo Fisher Scientific
Summary of the method: as §1

ERBB4 (HER4) = target: T6, ERBB4 (HER4) (Homo sapiens, UniProt Q15303)
T6 construct: purchased Thermo Fisher Scientific
Summary of the method: as §1

SBK1 = target: T7, SBK1 (Homo sapiens, UniProt Q52WX2)
T7 construct: purchased Thermo Fisher Scientific
Summary of the method: as §1

CSNK1E (CK1 epsilon) = target: T8, CSNK1E (CK1 epsilon) (Homo sapiens, UniProt P49674)
T8 construct: purchased Thermo Fisher Scientific
Summary of the method: as §1

ACVR1B (ALK4) = target: T9, ACVR1B (ALK4) (Homo sapiens, UniProt P36896)
T9 construct: purchased Thermo Fisher Scientific
T9 sequence (P36896 24-505): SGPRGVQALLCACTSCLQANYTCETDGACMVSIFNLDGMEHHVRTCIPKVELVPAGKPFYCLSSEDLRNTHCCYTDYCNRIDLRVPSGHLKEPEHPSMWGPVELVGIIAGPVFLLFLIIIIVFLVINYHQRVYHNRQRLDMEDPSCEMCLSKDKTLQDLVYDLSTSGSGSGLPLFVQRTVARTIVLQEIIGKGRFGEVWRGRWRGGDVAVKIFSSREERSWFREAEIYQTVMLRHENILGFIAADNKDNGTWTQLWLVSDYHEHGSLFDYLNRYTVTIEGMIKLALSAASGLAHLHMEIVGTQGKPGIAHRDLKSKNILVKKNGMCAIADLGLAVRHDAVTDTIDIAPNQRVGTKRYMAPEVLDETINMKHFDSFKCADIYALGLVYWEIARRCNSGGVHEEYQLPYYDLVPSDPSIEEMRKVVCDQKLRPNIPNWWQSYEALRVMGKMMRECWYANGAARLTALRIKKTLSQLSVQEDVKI
Summary of the method: as §1

T6 sequence (Q15303 26-1308): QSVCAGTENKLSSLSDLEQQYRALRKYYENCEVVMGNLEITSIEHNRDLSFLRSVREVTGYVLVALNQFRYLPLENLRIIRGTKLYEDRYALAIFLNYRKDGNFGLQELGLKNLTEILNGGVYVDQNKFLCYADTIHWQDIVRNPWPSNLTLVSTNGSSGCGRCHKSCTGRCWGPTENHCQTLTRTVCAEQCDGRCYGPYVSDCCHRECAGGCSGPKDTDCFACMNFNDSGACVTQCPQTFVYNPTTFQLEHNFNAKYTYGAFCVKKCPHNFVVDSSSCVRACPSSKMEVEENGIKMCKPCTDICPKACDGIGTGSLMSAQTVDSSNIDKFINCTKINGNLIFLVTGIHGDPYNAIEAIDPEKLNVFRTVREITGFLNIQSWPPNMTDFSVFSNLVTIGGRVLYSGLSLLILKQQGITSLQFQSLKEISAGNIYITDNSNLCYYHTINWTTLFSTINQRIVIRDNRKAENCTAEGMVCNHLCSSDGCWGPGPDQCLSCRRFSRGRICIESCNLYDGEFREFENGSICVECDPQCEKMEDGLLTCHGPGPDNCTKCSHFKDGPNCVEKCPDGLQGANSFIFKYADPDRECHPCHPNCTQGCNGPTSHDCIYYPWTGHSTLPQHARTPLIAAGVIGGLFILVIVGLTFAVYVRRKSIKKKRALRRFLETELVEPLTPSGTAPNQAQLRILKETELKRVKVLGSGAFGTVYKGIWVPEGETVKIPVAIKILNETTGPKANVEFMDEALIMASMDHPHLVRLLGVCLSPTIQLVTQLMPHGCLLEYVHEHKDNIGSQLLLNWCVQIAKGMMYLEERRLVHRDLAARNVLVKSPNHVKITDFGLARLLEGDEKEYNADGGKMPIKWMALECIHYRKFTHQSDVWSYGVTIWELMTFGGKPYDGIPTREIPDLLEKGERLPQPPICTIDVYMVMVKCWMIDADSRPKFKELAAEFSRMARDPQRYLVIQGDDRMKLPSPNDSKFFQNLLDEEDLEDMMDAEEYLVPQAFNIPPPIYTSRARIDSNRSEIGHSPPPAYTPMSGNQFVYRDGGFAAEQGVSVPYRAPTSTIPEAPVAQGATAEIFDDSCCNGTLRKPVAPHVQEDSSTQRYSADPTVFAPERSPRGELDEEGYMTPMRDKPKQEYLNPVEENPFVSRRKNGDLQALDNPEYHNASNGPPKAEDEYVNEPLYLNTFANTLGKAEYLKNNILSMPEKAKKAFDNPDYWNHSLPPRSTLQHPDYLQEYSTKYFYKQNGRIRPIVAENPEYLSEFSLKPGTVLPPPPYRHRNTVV
T5 sequence (P19784 whole entry): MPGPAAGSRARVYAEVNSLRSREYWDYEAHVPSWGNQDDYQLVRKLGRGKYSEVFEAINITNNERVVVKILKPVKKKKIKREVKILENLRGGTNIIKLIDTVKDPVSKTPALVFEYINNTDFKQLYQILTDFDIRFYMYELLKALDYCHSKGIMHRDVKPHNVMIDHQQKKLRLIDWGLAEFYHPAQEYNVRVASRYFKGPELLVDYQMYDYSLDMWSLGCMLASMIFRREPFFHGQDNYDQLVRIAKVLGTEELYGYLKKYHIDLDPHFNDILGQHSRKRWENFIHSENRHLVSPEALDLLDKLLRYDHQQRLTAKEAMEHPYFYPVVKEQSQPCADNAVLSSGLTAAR
T7 sequence (Q52WX2 whole entry): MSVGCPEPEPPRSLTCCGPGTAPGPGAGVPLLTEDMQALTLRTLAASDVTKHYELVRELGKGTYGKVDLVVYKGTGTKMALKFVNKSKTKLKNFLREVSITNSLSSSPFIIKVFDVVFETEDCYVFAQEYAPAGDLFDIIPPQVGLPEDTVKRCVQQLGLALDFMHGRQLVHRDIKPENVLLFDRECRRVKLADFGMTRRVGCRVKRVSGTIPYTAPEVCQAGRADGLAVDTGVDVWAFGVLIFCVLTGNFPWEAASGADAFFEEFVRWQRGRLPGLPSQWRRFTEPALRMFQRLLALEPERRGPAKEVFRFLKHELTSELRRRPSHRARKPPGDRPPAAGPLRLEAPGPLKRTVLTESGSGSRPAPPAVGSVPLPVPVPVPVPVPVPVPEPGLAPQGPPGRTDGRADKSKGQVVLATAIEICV
T8 sequence (P49674 whole entry): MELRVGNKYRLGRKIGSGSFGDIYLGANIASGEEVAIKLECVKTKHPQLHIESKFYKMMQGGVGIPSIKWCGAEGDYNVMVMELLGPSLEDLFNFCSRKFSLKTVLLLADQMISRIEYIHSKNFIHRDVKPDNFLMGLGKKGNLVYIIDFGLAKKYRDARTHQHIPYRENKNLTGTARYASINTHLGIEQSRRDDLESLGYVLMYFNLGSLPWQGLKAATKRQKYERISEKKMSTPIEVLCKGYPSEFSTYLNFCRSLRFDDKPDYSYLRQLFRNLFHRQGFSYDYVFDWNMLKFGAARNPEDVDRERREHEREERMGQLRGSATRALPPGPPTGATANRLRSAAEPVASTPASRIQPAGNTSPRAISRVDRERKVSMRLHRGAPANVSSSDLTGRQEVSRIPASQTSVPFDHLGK
T2 sequence (Q9Y6M4 whole entry): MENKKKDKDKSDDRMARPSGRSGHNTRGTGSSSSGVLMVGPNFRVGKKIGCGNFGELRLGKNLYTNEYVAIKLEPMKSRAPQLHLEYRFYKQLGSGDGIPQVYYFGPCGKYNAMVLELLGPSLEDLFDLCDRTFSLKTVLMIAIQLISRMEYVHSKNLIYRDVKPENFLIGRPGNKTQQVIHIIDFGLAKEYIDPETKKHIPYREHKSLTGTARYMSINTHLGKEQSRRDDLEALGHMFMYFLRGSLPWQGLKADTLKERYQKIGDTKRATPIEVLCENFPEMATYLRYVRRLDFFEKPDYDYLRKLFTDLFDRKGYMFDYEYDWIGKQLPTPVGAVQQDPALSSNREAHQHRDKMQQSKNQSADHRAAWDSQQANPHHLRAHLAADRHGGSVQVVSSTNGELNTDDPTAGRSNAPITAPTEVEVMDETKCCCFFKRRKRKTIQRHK
T4 sequence (Q05655 whole entry): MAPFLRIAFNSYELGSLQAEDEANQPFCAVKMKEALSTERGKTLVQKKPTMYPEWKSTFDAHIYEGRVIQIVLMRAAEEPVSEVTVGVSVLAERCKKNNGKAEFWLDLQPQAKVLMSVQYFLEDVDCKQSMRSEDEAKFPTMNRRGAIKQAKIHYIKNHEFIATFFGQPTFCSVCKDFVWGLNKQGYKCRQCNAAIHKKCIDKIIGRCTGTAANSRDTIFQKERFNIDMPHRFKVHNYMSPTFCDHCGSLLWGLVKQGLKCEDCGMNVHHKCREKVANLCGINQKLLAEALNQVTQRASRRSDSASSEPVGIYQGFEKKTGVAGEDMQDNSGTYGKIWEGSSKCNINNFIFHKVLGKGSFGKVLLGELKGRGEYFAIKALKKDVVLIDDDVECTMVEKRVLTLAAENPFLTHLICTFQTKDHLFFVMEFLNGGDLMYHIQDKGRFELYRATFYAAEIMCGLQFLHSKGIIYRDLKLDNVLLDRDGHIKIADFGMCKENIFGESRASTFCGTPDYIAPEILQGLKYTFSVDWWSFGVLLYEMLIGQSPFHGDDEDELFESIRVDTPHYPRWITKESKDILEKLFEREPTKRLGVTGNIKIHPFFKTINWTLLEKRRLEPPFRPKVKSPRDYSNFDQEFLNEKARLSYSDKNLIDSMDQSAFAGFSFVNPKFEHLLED
T1 sequence (P78368 whole entry): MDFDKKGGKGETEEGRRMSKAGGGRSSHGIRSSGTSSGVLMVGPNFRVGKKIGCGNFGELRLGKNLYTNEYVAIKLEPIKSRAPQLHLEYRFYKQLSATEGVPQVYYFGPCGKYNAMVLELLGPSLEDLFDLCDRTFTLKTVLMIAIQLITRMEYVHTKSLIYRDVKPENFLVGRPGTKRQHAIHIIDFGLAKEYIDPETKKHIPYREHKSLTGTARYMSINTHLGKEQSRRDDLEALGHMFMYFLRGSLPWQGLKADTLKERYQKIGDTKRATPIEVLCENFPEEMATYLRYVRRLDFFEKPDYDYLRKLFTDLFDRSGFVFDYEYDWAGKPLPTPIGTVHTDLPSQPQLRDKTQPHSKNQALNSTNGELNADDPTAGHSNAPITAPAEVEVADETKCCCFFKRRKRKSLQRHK

COc1ccc2c(c1OC)c(=O)n1c3ccc(O)cc3c3ccnc2c31 [MW01, 5-Hydroxy-10,11-dimethoxy-9H-benzo[c]indolo[3,2,1-ij][1,5]naphthyridin-9-one]
inhibition at 1 µM (CSNK1G2 (CK1 gamma 2)): 22%
inhibition at 10 µM (CSNK1G2 (CK1 gamma 2)): 41%
inhibition at 1 µM (CSNK1G3 (CK1 gamma 3)): 4%
inhibition at 10 µM (CSNK1G3 (CK1 gamma 3)): 12%
inhibition at 1 µM (IKBKE (IKK epsilon)): 11%
inhibition at 10 µM (IKBKE (IKK epsilon)): 17%
inhibition at 1 µM (PRKCD (PKC delta)): 6%
inhibition at 10 µM (PRKCD (PKC delta)): 17%
inhibition at 1 µM (CSNK2A2 (CK2 alpha 2)): 16%
inhibition at 10 µM (CSNK2A2 (CK2 alpha 2)): 29%
inhibition at 1 µM (ERBB4 (HER4)): -3%
inhibition at 10 µM (ERBB4 (HER4)): 4%
inhibition at 1 µM (SBK1): 3%
inhibition at 10 µM (SBK1): 3%
inhibition at 1 µM (CSNK1E (CK1 epsilon)): 6%
inhibition at 10 µM (CSNK1E (CK1 epsilon)): 32%
inhibition at 1 µM (ACVR1B (ALK4)): -9%
inhibition at 10 µM (ACVR1B (ALK4)): -3%

COc1ccc2cc3c(N)nn(C(=O)c4cccc(N(C)C)c4)c3nc2c1 [MW05, (3-Amino-7-methoxypyrazolo[3,4-b]quinolin-1-yl)-[3-(dimethylamino)phenyl]methanone]
inhibition at 1 µM (CSNK1G2 (CK1 gamma 2)): 4%
inhibition at 10 µM (CSNK1G2 (CK1 gamma 2)): 13%
inhibition at 1 µM (CSNK1G3 (CK1 gamma 3)): 1%
inhibition at 10 µM (CSNK1G3 (CK1 gamma 3)): 9%
inhibition at 1 µM (IKBKE (IKK epsilon)): 8%
inhibition at 10 µM (IKBKE (IKK epsilon)): 6%
inhibition at 1 µM (PRKCD (PKC delta)): 14%
inhibition at 10 µM (PRKCD (PKC delta)): 0%
inhibition at 1 µM (CSNK2A2 (CK2 alpha 2)): 7%
inhibition at 10 µM (CSNK2A2 (CK2 alpha 2)): 4%
inhibition at 1 µM (ERBB4 (HER4)): 5%
inhibition at 10 µM (ERBB4 (HER4)): -11%
inhibition at 1 µM (SBK1): -7%
inhibition at 10 µM (SBK1): -26%
inhibition at 1 µM (CSNK1E (CK1 epsilon)): 2%
inhibition at 10 µM (CSNK1E (CK1 epsilon)): 0%
inhibition at 1 µM (ACVR1B (ALK4)): 1%
inhibition at 10 µM (ACVR1B (ALK4)): -8%
